Eleven molecules from patent US7030242B2, “Selective inhibition of aggrecanase in osteoarthritis treatment” (Pfizer Inc, priority 1999, dated 2006) can be followed below.

Assay [1] has as its target T1, Human recombinant collagenase-1 (Homo sapiens, UniProt P03956).
T1 sequence (P03956 100-469): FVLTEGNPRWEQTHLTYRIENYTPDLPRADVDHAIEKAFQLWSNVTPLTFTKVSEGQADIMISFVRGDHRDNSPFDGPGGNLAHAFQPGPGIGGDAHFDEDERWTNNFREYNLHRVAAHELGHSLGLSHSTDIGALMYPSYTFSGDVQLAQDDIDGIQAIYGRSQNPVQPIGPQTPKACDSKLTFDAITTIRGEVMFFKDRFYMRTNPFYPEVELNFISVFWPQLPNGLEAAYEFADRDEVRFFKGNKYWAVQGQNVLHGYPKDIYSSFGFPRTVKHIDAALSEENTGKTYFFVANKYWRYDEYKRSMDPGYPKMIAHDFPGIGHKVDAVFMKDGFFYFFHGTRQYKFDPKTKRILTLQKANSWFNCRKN
The assay can be described thus: Inhibition of human collagenase-1 (recombinant collagenase-1 assay). The settings on record: Table 2, read-out: MMP-1 (IC50 class). It counts as biochemical. How it is done: Inhibition of Human Collagenase-1 (Recombinant Collagenase-1 Assay)
This assay is used in the invention to measure the potency (IC50s) of compounds for collagenase-1.
Human recombinant collagenase-1 is activated with trypsin. The amount of trypsin is optimized for each lot of collagenase-1, but a typical reaction uses the following ratio: 5 mg trypsin per 100 mg of collagenase.
Stock solutions (10 mM) of inhibitors are made up in dimethylsulfoxide and then diluted using the following scheme: • 10 mM------>120 μM------>12 μM------>1.2 μM------>0.12 μM
Twenty-five microliters of each concentration is then added in triplicate to appropriate wells of a 96 well microfluor plate. The final concentration of inhibitor will be a 1:4 dilution after addition of enzyme and substrate. Positive controls (enzyme, no inhibitor) are set up in wells D7–D12 and negative controls (no enzyme, no inhibitors) are set in wells D1–D6.
Collagenase-1 is diluted to 240 ng/ml and […] is then added to appropriate wells of the microfluor plate. Final concentration of collagenase in the assay is 60 ng/ml.
Substrate (DNP-Pro-Cha-Gly-Cys(Me)-His-Ala-Lys(NMA)-NH2) is made as a 5 mM stock in dimethylsulfoxide and then diluted to 20 μM in assay buffer. The assay is initiated by the addition of […] substrate per well of the microfluor plate to give a final concentration of 10 μM.
Fluorescence readings (360 nm excitation, 460 nm emission) are taken at time 0 and then at about 20 minute intervals. The assay is conducted at a temperature of about 20 to about 25° C., preferably about 23° C. with a typical assay time of about 3 hours.
Fluorescence versus time is then plotted for both the blank and collagenase containing samples (data from triplicate determinations is averaged). A time point that provides a good signal (at least five fold over the blank) and that is on a linear part of the curve (usually around 120 minutes) is chosen to determine IC50 values. The zero time is used as a blank for each compound at each concentration and these values are subtracted from the 120 minute data. Data is plotted as inhibitor concentration versus % control (inhibitor fluorescence divided by fluorescence of collagenase alone ×100).

Assay [2] concerns the target Human recombinant collagenase-3 (Homo sapiens, UniProt P45452). Description: Inhibition of human collagenase-3 (recombinant collagenase-3 assay). Conditions: Table 2; recombinant collagenase-3 assay; read-out: MMP-13 (IC50 class). The format is biochemical. How it is done: Inhibition of Human Collagenase-3 (Recombinant Collagenase-3 Assay)
This assay is used in the invention to measure the potency (IC50s) of compounds for collagenase-3.
Human recombinant collagenase-3 is activated with 2 mM APMA (p-aminophenyl mercuric acetate) for about 2.0 hours, at about 37° C. and is diluted to about 240 ng/ml in assay buffer (50 mM Tris, pH 7.5, 200 mM sodium chloride, 5 mM calcium chloride, […], 0.02% BRIJ-35). Twenty-five micro-liters of diluted enzyme is added per well of a 96 well microfluor plate.
The final concentrations in the assay are 30 μM, 3 μM, 0.3 μM, and 0.03 μM.
Fluorescence readings (360 nm excitation; 450 nm emission) are taken at time 0 and about every 5 minutes for about 1 hour.
Positive controls and negative controls are set up in triplicate as outlined in the collagenase-1 assay. IC50's are determined as per inhibition of human collagenase (collagenase-1).

A further assay has as its system aggrecanase. The assay can be described thus: Aggrecanase chondrocyte assay (35S-proteoglycan release, IL-1 stimulated). The settings on record: Table 2; aggrecanase chondrocyte assay; read-out: Agg (aggrecanase IC50 class). The format is cell-based, porcine. How it is done:
Aggrecanase Chondrocyte Assay
This assay is used in the invention to measure the potency (IC50s) of compounds for aggrecanase.
Primary porcine chondrocytes from articular joint cartilage are isolated by sequential trypsin and collagenase digestion followed by collagenase digestion overnight and are plated at 2×10^5 cells per well into 48 well plates with 5 μCi/ml ^35S (1000 Ci/mmol) sulphur in type I collagen coated plates. Cells are allowed to incorporate label into their proteoglycan matrix (approximately 1 week) at 37° C., under an atmosphere of 5% CO2.
The night before initiating the assay, chondrocyte monolayers are washed two times in DMEM/1% PSF/G and then allowed to incubate in fresh DMEM/1% FBS overnight.
The following morning chondrocytes are washed once in DMEM/1% PSF/G. The final wash is allowed to sit on the plates in the incubator while making dilutions. Media and dilutions can be made as described in the Table I below.
Plates are labeled and only the interior 24 wells of the plate are used. On one of the plates, several columns are designated as IL-1 (no drug) and Control (no IL-1, no drug). These control columns are periodically counted to monitor 35S-proteoglycan release. Control and IL-1 media are added to wells (450 μl) followed by compound (50 μl) so as to initiate the assay. Plates are incubated at 37° C., with a 5% CO2 atmosphere.
At 40–50% release (when CPM from IL-1 media is 4–5 times control media) as assessed by liquid scintillation counting (LSC) of media samples, the assay is terminated (about 9 to about 12 hours). Media is removed from all wells and placed in scintillation tubes. Scintillate is added and radioactive counts are acquired (LSC). To solubilize cell layers, 500 μL of papain digestion buffer (0.2 M Tris, pH 7.0, 5 mM EDTA, 5 mM DTT, and 1 mg/ml papain) is added to each well. Plates with digestion solution are incubated at 60° C. overnight. The cell layer is removed from the plates the next day and placed in scintillation tubes. Scintillate is then added, and samples counted (LSC).
The percent of released counts from the total present in each well is determined. Averages of the triplicates are made with control background subtracted from each well.

A further assay concerns the target T2, TACE (Homo sapiens, UniProt P78536).
T2 construct: Human mononuclear cells are isolated from anti-coagulated human blood; endogenous in cells; host or cells: human peripheral blood mononuclear cells, LPS stimulated
The assay can be described thus: Inhibition of soluble TNF-α production (TACE whole blood assay). It counts as cell-based. The settings on record: Table 2, read-out: TACE (IC50 class). How it is done:
Inhibition of Soluble TNF-α Production (TACE Whole Blood Assay)
This assay is used in the invention to measure the potency (IC50s) of compounds for TACE.
Human mononuclear cells are isolated from anti-coagulated human blood using a one-step Ficoll-hypaque separation technique. (2) The mononuclear cells are washed three times in Hanks balanced salt solution (HBSS) with divalent cations and re-suspended to a density of 2×10^6/ml in HBSS containing 1% BSA.
180 μL of the cell suspension was aliquoted into flat bottom 96 well plates (Costar). Additions of compounds and LPS (100 ng/ml final concentration) gives a final volume of 200 μL. All conditions are performed in triplicate. After about a four hour incubation at about 37° C. in an humidified CO2 incubator, plates are removed and centrifuged (about 10 minutes at approximately 250×g) and the supernatants removed and assayed for TNF-α using the R&D ELISA Kit.

T2 sequence (P78536 215-824): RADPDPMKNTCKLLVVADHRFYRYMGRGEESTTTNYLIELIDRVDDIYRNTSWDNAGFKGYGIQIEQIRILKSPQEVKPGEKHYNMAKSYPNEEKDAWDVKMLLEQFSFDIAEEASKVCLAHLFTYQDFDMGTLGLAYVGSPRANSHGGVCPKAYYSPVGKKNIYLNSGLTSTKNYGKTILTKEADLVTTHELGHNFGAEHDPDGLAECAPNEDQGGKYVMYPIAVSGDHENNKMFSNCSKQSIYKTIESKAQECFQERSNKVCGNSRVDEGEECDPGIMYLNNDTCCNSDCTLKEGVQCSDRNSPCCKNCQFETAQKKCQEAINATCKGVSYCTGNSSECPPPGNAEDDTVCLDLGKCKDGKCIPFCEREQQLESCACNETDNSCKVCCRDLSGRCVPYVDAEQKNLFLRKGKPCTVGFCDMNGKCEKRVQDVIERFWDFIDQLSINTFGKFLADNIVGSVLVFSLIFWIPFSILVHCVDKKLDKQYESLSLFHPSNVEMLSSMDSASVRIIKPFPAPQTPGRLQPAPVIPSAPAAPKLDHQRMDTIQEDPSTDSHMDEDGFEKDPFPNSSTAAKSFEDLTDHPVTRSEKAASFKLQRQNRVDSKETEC

A word on the IC50: it is the midpoint of a concentration-inhibition curve. In the case of `Cc1c(F)cccc1COc1ccc(S(=O)(=O)N2C[C@H](O)CC(C)(C)[C@@H]2C(=O)NO)cc1` [(2R,5R) 1-[4-(2-methyl-3-fluoro-benzyloxy)-benzenesulfonyl]-5-hydroxy-3,3-dimethyl-piperidine-2-carboxylic acidhydroxyamide], the IC50 in assay [1] is 200 to 1000 nM; in assay [2] it was less than 10 nM; with aggrecanase, less than 10 nM; at TACE, less than 10000 nM.
As for `CC1(C)C[C@@H](O)CN(S(=O)(=O)c2ccc(OCc3ccc(F)cc3)cc2)[C@H]1C(=O)NO` [(2R,5R) 1-[4-(4-fluoro-benzyloxy)-benzenesulfonyl]-5-hydroxy-3,3-dimethyl-piperidine-2-carboxylic acidhydroxyamide], the IC50 in assay [1] was 20 to 200 nM; in assay [2] it was less than 10 nM; in the assay on aggrecanase, less than 10 nM; on TACE, 10000 to 20000 nM.
For `Cc1ccccc1COc1ccc(S(=O)(=O)N2CCC[C@](C)(O)[C@@H]2C(=O)NO)cc1` [(2R,3S) 1-[4-(2-methyl-benzyloxy)-benzenesulfonyl]-3-hydroxy-3-methyl-piperidine-2-carboxylic acidhydroxyamide], the 50% inhibitory concentration (IC50) in assay [1] was 200 to 1000 nM; in assay [2], less than 10 nM; in the assay with aggrecanase, 10 to 20 nM; on TACE it was less than 10000 nM.
On the same counts, the results for `C[C@@]1(O)CCCN(S(=O)(=O)c2ccc(OCc3ccc(F)cc3Cl)cc2)[C@H]1C(=O)NO` [(2R,3R) 1-[4-(2-chloro-4-fluoro-benzyloxy)-benzenesulfonyl]-3-hydroxy-3-methyl-piperidine-2-carboxylic acidhydroxyamide] are 200 to 1000 nM, less than 10 nM, less than 10 nM and 10000 to 20000 nM.
On the same counts, the results for `Cc1ccccc1COc1ccc(S(=O)(=O)N2CCN(C(=O)CN)[C@@H](C)[C@@H]2C(=O)NO)cc1` [(2R,3S) 1-[4-(2-methyl-benzyloxy)-benzenesulfonyl]-4-aminoacetyl-3-methyl-piperazine-2-carboxylic acidhydroxyamide] are greater than 1000 nM, 20 to 200 nM, less than 10 nM and less than 10000 nM.
As to `CCc1ccccc1COc1ccc(S(=O)(=O)N2CCN(C(=O)NC)[C@@H](C)[C@@H]2C(=O)NO)cc1` [(2R,3S) 4-[4-(2-ethyl-benzyloxy)-benzenesulfonyl]-3-methyl-4-carboxylic acidmethylamide-piperazine-2-carboxylic acidhydroxyamide], the IC50 in assay [1] is greater than 1000 nM; in assay [2], 20 to 200 nM; in the assay with aggrecanase, less than 10 nM; at TACE, less than 10000 nM.
On the same counts, the results for `CC1(C)C[C@@H](O)CN(S(=O)(=O)c2ccc(OCc3ccccc3Br)cc2)[C@H]1C(=O)NO` [(2R,5R) 1-[4-(2-bromo-benzyloxy)-benzenesulfonyl]-5-hydroxy-3,3-dimethyl-piperidine-2-carboxylic acidhydroxyamide] are 200 to 1000 nM, less than 10 nM, 10 to 20 nM and less than 10000 nM.
The corresponding values for `Cc1ccccc1COc1ccc(S(=O)(=O)N2CCC[C@@](C)(O)C2C(=O)NO)cc1` (stereo partly drawn) [(2R,3R) 1-[4-(2-methyl-benzyloxy)-benzenesulfonyl]-3-hydroxy-3-methyl-piperidine-2-carboxylic acidhydroxyamide] are 200 to 1000 nM, less than 10 nM, less than 10 nM and less than 10000 nM.
Regarding `CC1(C)C[C@@H](O)CN(S(=O)(=O)c2ccc(OCc3ccc(F)cc3Cl)cc2)[C@H]1C(=O)NO` [(2R,5R) 1-[4-(2-chloro-4-fluoro-benzyloxy)-benzenesulfonyl]-5-hydroxy-3,3-dimethyl-piperidine-2-carboxylic acidhydroxyamide], the IC50 is 200 to 1000 nM in assay [1], less than 10 nM in assay [2], less than 10 nM in the assay with aggrecanase and 10000 to 20000 nM on TACE.
`CC1(C)C[C@@H](O)CN(S(=O)(=O)c2ccc(OCc3ccc(Cl)cc3Cl)cc2)[C@H]1C(=O)NO` [(2R,5R) 1-[4-(2,4-dichloro-benzyloxy)-benzenesulfonyl]-5-hydroxy-3,3-dimethyl-piperidine-2-carboxylic acidhydroxyamide]: the IC50 is 200 to 1000 nM in assay [1], less than 10 nM in assay [2], less than 10 nM with aggrecanase and 20000 to 40000 nM at TACE.
Turning to `CC1(C)C[C@@H](O)CN(S(=O)(=O)c2ccc(OCc3cc(Cl)ccc3F)cc2)[C@H]1C(=O)NO` [(2R,5R) 1-[4-(2-fluoro-5-chloro-benzyloxy)-benzenesulfonyl]-5-hydroxy-3,3-dimethyl-piperidine-2-carboxylic acidhydroxyamide], the IC50 was 200 to 1000 nM in assay [1], less than 10 nM in assay [2], 10 to 20 nM in the assay with aggrecanase and 10000 to 20000 nM at TACE.
